Measured values from US20110217301A1, “METHODS FOR TREATING OR SCREENING FOR COMPOUNDS FOR THE TREATMENT OF SEPSIS” (priority 2009, published 2011).
Where a SMILES comes first, the peptide text is derived from it. Bridges are numbered along the chain shown (N, C = ends). [ ]: non-standard residue; d: D form. hArg = N=C(N)NCCCC[C@H](N)C(=O)O; Mpa = O=C(O)CCS

Key:
[1] = molecular target: plasma membrane glycoprotein GPIIb/IIIa (mouse) (UniProt Q9QUM0); test: cell-based or functional assay
other integrins = conditions: binds specifically to GPIIb/IIIa; cited from earlier work
splenocytes = test: Ex vivo septic platelet-splenocyte co-incubation with anti-aggregatory platelet pretreatment; apoptosis by flow cytometry (TUNEL, pan-caspase FLICA); assay type: cell-based, mouse
Description: Non-septic wild type spleens were firmly pressed between two glass slides to express splenocytes, which were isolated by centrifugation through Ficoll-Paque™ Plus (GE Healthcare Bio-Sciences Corporation, Piscataway, N.J.). Splenocyte concentrations were measured and standardized using a manual hemocytometer and co-incubated ex vivo with platelets (from septic or healthy control mice) for 90 minutes at 37° C. and 5% CO2 in complete Dulbecco's Modified Eagle Medium (DMEM) (Invitrogen/GIBCO, Carlsbad, Calif.). For some experiments, a 0.4 μm semi-permeable membrane (Corning Inc., Corning, N.Y.) was used to physically separate platelets from splenocytes.
Splenocyte apoptosis in each experimental condition was quantified in cell suspensions by flow cytometry on a FACSCalibur™ (Becton, Dickinson and Company, San Jose, Calif.) and in tissue sections by immunohistochemistry on a Nikon Eclipse E 800 Microscope (Nikon Instruments Inc., Melville, N.Y.) with a Spot RT Slider Camera (Diagnostic Instruments Inc., Sterling Heights, Mich.).
Splenocyte suspension apoptosis was identified using FlowTACS™ (Trevigen, Gaithersburg, Md.), a TUNEL-based assay for detection of DNA fragmentation. Positive controls were generated with staurosporine (Sigma Life Sciences, St Louis, Mo.). CD4+ fractions were identified by fluorophore-labeled antibody staining (clone L3T4; eBiosciences, San Diego, Calif.). We used a Sulforhodamine FLICA-Apoptosis Detection Kit Pan-Caspase Assay (Immunochemistry Technologies, Bloomington, Minn.) to measure activated caspases in apoptotic cells. Immunohistochemistry was performed on frozen heart, lung, kidney, spleen, and liver sections (4-7 μm) stained with the TUNEL-based TACK® 2 TdT In Situ Apoptosis Detection Kit (Trevigen, Gaithersburg, Md., USA) according to the manufacturer's instructions.

CD4+ splenocytes = test: Co-incubation of CD4+ splenocytes with platelets with or without recombinant TNFα pre-treatment; apoptosis by TiterTACS; assay type: cell-based, mouse
Description: CD4^+ splenocytes from healthy control mice were co-incubated with platelets isolated from control or septic mice for 90 minutes at 37° C. and 5% CO2 with or without platelet pre-treatment with 10 ng/mL of recombinant TNFα (Sigma-Aldrich) for 90 minutes. Splenocyte apoptosis was evaluated by TiterTACS™ (Trevigen, Gaithersburg, Md., USA), a quantitative colorimetric assay for in situ detection of DNA fragmentation. All samples were run in triplicate according to the manufacturer's protocol with data normalized to negative and nuclease-induced positive controls.
Our finding of granzyme B in platelets from septic mice and humans caused us to hypothesize that platelets could be lymphotoxic in this scenario. To study this question, platelets from mice 18 hours status post CLP were co-incubated with CD4^+ splenocytes isolated from healthy control mice. Platelets from septic wild-type (i.e. C57BL6) mice induced marked splenocyte apoptosis compared to platelets from sham wild-type mice (rate of apoptosis=26.0±3.4 versus 3.9±3.4%; p=0.007). (FIG. 4) This co-incubation experiment was repeated with platelets from septic granzyme B null (−/−) mice (i.e. B6.129S2-Gzmb^tmlLey). In this case, there was a complete lack of induced splenocyte apoptosis by septic platelets. […] (FIG. 4)

granzyme B = test: Flow cytometry of intracellular granzyme B in CD61+ platelets; assay type: cell-based, mouse; conditions: additional platelet activation with TNFα; data not shown
Source text: To determine if granzyme B mRNA up-regulation translates to increased granzyme B protein expression, additional citrated whole blood was collected from septic and control mice. It was fixed with 1% paraformaldehyde, permeabilized, and intracellularly stained with anti-granzyme B (clone 16G6; eBioscience, San Diego, Calif., USA) using appropriate isotype and negative (unlabeled) controls. Flow cytometry data were generated on a FACSCalibur™ System (BD Biosciences, San Jose, Calif., USA), gating on CD61^+ (clone 2C9.G2; BD) platelets, and analyzed using FlowJo 7.2 (Tree Star, Inc., Ashland, Oreg., USA).

[2] = adults admitted to the ICU already receiving aspirin, clopidogrel or a combination; cited from earlier work
[3] = eptifibatide-exposed (4 μg/mL, 15 minutes) septic wild type platelets with healthy splenocytes vs non-exposed septic platelets, mean±SEM
[4] = platelets pre-treated, compared with untreated septic platelets

UniProt Q9QUM0, sequence (Q9QUM0 32-1033, chain 1 of 2): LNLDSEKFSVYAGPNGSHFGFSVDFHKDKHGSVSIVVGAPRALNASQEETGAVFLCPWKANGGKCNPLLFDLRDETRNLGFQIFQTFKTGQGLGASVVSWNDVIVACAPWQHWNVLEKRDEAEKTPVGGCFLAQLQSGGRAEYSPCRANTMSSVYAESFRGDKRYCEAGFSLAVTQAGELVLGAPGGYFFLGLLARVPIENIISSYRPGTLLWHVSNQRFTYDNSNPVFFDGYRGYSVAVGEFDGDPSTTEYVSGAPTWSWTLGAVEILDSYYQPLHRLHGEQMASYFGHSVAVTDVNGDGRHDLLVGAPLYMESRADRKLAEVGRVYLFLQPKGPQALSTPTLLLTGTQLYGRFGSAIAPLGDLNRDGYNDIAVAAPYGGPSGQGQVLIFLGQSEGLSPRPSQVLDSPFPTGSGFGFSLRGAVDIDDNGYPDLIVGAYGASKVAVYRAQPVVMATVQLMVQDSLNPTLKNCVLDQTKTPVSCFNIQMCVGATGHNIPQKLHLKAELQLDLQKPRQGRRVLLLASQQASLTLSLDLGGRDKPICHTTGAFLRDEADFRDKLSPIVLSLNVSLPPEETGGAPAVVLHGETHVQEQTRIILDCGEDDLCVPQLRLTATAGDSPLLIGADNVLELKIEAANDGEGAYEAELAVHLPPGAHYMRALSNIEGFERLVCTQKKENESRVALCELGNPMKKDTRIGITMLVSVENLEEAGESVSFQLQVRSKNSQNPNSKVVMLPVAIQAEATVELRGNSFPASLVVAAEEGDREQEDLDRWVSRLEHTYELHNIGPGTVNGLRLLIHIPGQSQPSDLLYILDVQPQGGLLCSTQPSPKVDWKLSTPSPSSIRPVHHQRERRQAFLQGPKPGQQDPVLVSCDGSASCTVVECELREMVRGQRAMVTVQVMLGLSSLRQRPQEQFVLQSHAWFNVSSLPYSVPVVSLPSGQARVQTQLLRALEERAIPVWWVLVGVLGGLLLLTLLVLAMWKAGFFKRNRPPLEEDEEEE
UniProt Q9QUM0, sequence (O54890 26-787, chain 2 of 2, further chain): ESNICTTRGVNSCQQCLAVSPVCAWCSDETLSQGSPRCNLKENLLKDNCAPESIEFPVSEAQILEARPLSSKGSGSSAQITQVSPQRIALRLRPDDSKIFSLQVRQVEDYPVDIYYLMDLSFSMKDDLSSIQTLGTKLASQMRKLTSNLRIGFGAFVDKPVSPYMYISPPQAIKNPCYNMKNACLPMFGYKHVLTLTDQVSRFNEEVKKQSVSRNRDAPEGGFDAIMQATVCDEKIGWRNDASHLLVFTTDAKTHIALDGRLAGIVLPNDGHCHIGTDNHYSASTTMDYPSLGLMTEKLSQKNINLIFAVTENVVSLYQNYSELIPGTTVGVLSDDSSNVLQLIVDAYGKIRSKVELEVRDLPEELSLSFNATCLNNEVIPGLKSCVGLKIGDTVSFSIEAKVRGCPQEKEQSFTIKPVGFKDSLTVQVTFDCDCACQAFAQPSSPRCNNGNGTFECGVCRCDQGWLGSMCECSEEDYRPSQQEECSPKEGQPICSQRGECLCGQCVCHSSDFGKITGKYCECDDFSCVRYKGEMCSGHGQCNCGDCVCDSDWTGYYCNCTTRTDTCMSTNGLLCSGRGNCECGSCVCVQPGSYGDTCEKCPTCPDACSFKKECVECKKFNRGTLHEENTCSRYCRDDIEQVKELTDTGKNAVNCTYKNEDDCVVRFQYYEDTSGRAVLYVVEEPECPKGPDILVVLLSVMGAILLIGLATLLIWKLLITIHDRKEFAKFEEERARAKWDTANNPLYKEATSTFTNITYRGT

eptifibatide (peptide)
reduction of septic platelet-induced apoptosis in the CD4+ splenocyte fraction, TUNEL+ and pan-caspase+ by flow cytometry [1]: 85 % reduction
reduction of septic platelet-induced splenocyte apoptosis (overall), TUNEL+ and pan-caspase+ by flow cytometry [1]: 66.5 % reduction

N=C(N)NCCCC[C@@H]1NC(=O)CCSSC[C@@H](C(N)=O)NC(=O)[C@@H]2CCCN2C(=O)[C@H](Cc2c[nH]c3ccccc23)NC(=O)[C@H](CC(=O)O)NC(=O)CNC1=O [eptifibatide] ([Mpa][hArg]GDWPC-NH2; disulfide 1-7)
affinity for other integrins (other integrins): low affinity
reduction of splenocyte apoptosis in the CD4+ fraction (splenocytes; [3]): 85±20.7 % reduction
reduction of splenocyte apoptosis overall (splenocytes; [3]): 66.5±10.6 % reduction
septic platelet-induced CD4+ splenocyte apoptosis (TUNEL+ and pan-Caspase+), result in words (splenocytes; [4]): significant reduction
septic platelet-induced splenocyte apoptosis overall (TUNEL+ and pan-Caspase+), result in words (splenocytes; [4]): significant reduction

TNFα
lymphotoxic capacity of platelets, result in words (CD4+ splenocytes; further platelet activation with recombinant TNFα): did not alter
rate of apoptosis (lymphotoxicity) of CD4+ splenocytes (CD4+ splenocytes; wild-type platelets further activated by TNFα (10 ng/mL, 90 minutes), p=0.88 vs non-activated control platelets): 4.5±1.3%
intracellular granzyme B in platelets, result in words (granzyme B): did not alter

COC(=O)[C@H](c1ccccc1Cl)N1CCc2sccc2C1 [clopidogrel]
levels of MODS [2]: decreased levels of MODS
mortality [2]: decreased mortality

CC(=O)Oc1ccccc1C(=O)O [aspirin]
levels of MODS [2]: decreased levels of MODS
mortality [2]: decreased mortality
